Data taken from patent US7714106B2, “Neuropeptides and their use for pest control” (University of Florida Research Foundation, Inc., priority 1999, dated 2010).
No end group written: not given here.

These substances were tested on trypsin biosynthesis in the midgut of female Aedes aegypti (assay: Trypsin biosynthesis in blood-fed female mosquitoes injected with peptide (whole mosquitos)). Settings: whole blood-fed females, injected 0.25 μl, 10^−6 M peptide, midguts assayed 30 hours later.
Type: in vivo
Source text: To find out if NPF I and II affect trypsin biosynthesis in the midgut of female Aedes aegypti, […] were removed and assayed for trypsin biosynthesis (Borovsky el al., 1990 “Mosquito Oostatic Factor: A Novel Decapeptide Modulating Trypsin-Like Enzyme Biosynthesis in the Midgut” FASEB J. 4:3015-3020; Borovsky et al. 1993 “Mass Spectrometry and Characterization of Aedes aegypti Trypsin Modulating Oostatic Factor (TMOF) and its Analog” Insect Biochem. Molec. Biol. 23:703-712). Each experiment was repeated 3 times (5 females per group) and the results are expressed as % inhibition of trypsin biosynthesis±S.E.M. (FIG. 1).

Substance | % inhibition of trypsin biosynthesis
Ala-Pro-Ser-Leu-Arg-Leu-Arg-Phe-amide (APSLRLRF-NH2) [NPF II, amidated neuropeptide NPF II, native to the Colorado potato beetle] | 35%

These substances were tested on first instar Aedes aegypti larvae (assay: Effect of NPF polypeptides on Aedes aegypti larvae (ingestion, mortality)). Settings: microtiter plate, peptide 2 mg/ml to 0.04 mg/ml with Brewer's yeast, mortality at 24 hour intervals for 3 to 7 days, read-out: LC50 (mM) ± SEM.
Type: in vivo
Source text: NPF polypeptides sharing sequence homology with NPF I and NPF II of the Colorado potato beetle (Leptinotarsa decemlineata) (Spittaels, et al. Insect Biochem. Mol. Biol., 26 (4):375-382, 1996) have been identified in the American cockroach (Periplaneta americana) (Veenstra and Lambrou, Biochem. Biophys. Res. Commun., 213 (2):519-524, 1995), mosquito (Aedes aegypti) (Stanek et al., Display Presentation, Entomological Society of America Annual Meeting, Montreal, Canada, Dec. 3-6, 2000), and fruit fly (Drosophila melanogaster), and their pesticidal activity was confirmed. Synthesized polypeptides corresponding to the native polypeptides of Colorado potato beetle (SEQ ID NO. 1), mosquito (SEQ ID NOs. 5 and 7), American cockroach (SEQ ID NOs. 9 and 11), and fruit fly (SEQ ID NOs. 13 and 15) were provided to first instar Aedes aegypti larvae for ingestion. Non-amidated versions of SEQ ID NOs. 5, 7, 9, 11, 13, and 15 (SEQ ID NOs. 6, 8, 10, 12, 14, and 16, respectively), as well as other functional equivalents (SEQ ID NOs. 17-24), were also provided for ingestion.
First instar Aedes aegypti larvae were assayed in a microtiter plate in 188 μl solution containing 160 μl of water, 10 μl of 2% Brewer's yeast, and NPF polypeptides of the subject invention at concentrations of 2 mg/ml to 0.04 mg/ml (Table 2). Mortality was determined at 24 hour intervals for 3 to 7 days. Controls were run with yeast solution lacking the NPF polypeptide.

Substance | LC50
ADRSPSLRLRF-NH2 [SEQ ID NO. 11, Ala-Asp-Arg-Ser-Pro-Ser-Leu-Arg-Leu-Arg-Phe-amide] | 0.65 ± 0.03 mM
RSPSLRLRF-NH2 [SEQ ID NO. 17, Arg-Ser-Pro-Ser-Leu-Arg-Leu-Arg-Phe-amide] | 0.82 ± 0.07 mM
RPPTRFRF-NH2 [SEQ ID NO. 5, Arg-Pro-Pro-Thr-Arg-Phe-Arg-Phe-amide] | 0.61 ± 0.018 mM
ARGPQLRLRF-NH2 [SEQ ID NO. 1, Ala-Arg-Gly-Pro-Gln-Leu-Arg-Leu-Arg-Phe-amide] | 0.65 ± 0.04 mM
PSLRLRF-NH2 [SEQ ID NO. 19, Pro-Ser-Leu-Arg-Leu-Arg-Phe-amide] | > 2.25 mM
ANRSPSLRLRF-NH2 [SEQ ID NO. 9, Ala-Asn-Arg-Ser-Pro-Ser-Leu-Arg-Leu-Arg-Phe-amide] | 0.135 ± 0.06 mM
AQRSPSLRLRF-NH2 [SEQ ID NO. 15, Ala-Gln-Arg-Ser-Pro-Ser-Leu-Arg-Leu-Arg-Phe-amide] | 1.03 ± 0.1 mM
PIRSPSLRLRF-NH2 [SEQ ID NO. 13, Pro-Ile-Arg-Ser-Pro-Ser-Leu-Arg-Leu-Arg-Phe-amide] | 0.589 ± 0.04 mM
APQLRLRF-NH2 [SEQ ID NO. 7, Ala-Pro-Gln-Leu-Arg-Leu-Arg-Phe-amide] | 0.8 ± 0.06 mM
LRLRF-NH2 [SEQ ID NO. 21, Leu-Arg-Leu-Arg-Phe-amide] | > 2.8 mM
